Results: US20220079855A1, “GINGSENG-BASED COSMETIC COMPOSITION” (L'OREAL, priority 2018, published 2022)

Test system: stratum corneum of viable human skin (abdominal or breast reduction plastic surgery)
Assay: Desquamating activity: decrease in cohesion of the stratum corneum, histological score on excised human skin maintained under survival conditions
Type: cell-based
Conditions: score 0-4; for Score 2: (mean ± sd, n = 6): Table 2, applied D0 and D1, analysed D2; for Score (mean ± sd, n = 6): Table 3 (white ginseng study)
Procedure: The study aims to detect the desquamating potential of the combination of active agents according to the invention in simplex solution by observation of the cohesion of the stratum corneum.
The keratolytic effect on excised skin maintained under survival conditions […] was evaluated. The study was carried out on viable human skin resulting from abdominal or breast reduction plastic surgery (6 donors). These skin fragments were placed in inserts, comprising a porous membrane ([…]), themselves positioned on culture wells containing a culture medium as described in Boisnic et al., Journal of Cosmetics and laser therapy, 2010:12:25-31.
The protocol consists in applying the test solutions to skin samples maintained under survival conditions. The products tested are applied in a proportion of 15 μl per 1 cm^2 sample and are not rinsed off. Application is carried out twice, at D0 and then, 24 hours later, at D1. The morphology of the stratum corneum is analysed 48 hours after the first application, at D2, on a biopsy.
The solutions applied are the following: • compound A (plant active agent according to the invention) alone at 0.1% and 0.5% by weight of active material in water, and • compound B alone at 0.3% by weight in water • combination of A at 0.1% and B at 0.3% by weight in water • combination of A at 0.5% and B at 0.3% by weight in water.
By way of comparison, no solution is applied to a sample, referred to as a control sample, and a solution of glycolic acid at 30% by weight in water is applied to another sample. 6 samples were used for each of the tests (controls, compound A and compound B and combinations of A and B).
The histological analysis of the horny layer is carried out on a skin section after staining with hemalaun-eosin (magnification 400). The decrease in the cohesion of the stratum corneum is expressed in the form of a score: • score 0: absence of modification • score 1: slight decrease • score 2: moderate decrease • score 3: large decrease • score 4: very large decrease with exfoliation
A paired Student test (p<0.05) was carried out in order to evaluate the significance of the difference with respect to the control.
The protocol described in Example 2 was reproduced by considering a plant active agent not in accordance with the invention, namely white ginseng which is devoid of ginsenoside Rg3. This active agent considered is the product Ginseng ES, distributed by the company Greentech.

Row | Structure (SMILES) | Score 2: (mean ± sd, n = 6) (Glycolic acid at 30% in H2O) | Score (mean ± sd, n = 6) (Glycolic acid at 30% in H2O) | Score 2: (mean ± sd, n = 6) (Compound B at 0.3% in H2O) | Score (mean ± sd, n = 6) (Compound B at 0.3% in H2O)
1 | O=C(O)CO [Glycolic acid, glycolic acid] | 3.10 ± 0.12 | 2.14 ± 0.41 | – | –
2 | CCCCCCCC(=O)c1ccc(O)c(C(=O)O)c1 [Compound B, 5-n-Octanoylsalicylic acid] | – | – | 2.14 ± 0.52 | 1.75 ± 0.19
